Consider 1 compound from ChEMBL document CHEMBL3638960, “4,5-dihydro-oxazol-2yl derivatives” (2014).

This test has as its target Trace amine-associated receptor 1 (Mus musculus, UniProt Q923Y8). Kind of test: Binding assay: Binding assay was performed at 4 C. in a final volume of 1 ml, and with an incubation time of 30 min. The radioligand [3H]-rac-2-(1,2,3,4-tetrahydro-1-naphthyl)-2-imidazoline was used at a concentration equal to the calculated Kd value of 60 nM to give a bound at around 0.1% of the total added radioligand concentration, and a specific binding which represented approximately 70-80% of the total binding. Non-specific binding was defined as the amount of [3H]-rac-2-(1,2,3,4-tetrahydro-1-naphthyl)-2-imidazoline bound in the presence of the appropriate unlabelled ligand (10 μM). Competing ligands were tested in a wide range of concentrations ([…]).

Sequence of Trace amine-associated receptor 1 (Q923Y8 whole entry): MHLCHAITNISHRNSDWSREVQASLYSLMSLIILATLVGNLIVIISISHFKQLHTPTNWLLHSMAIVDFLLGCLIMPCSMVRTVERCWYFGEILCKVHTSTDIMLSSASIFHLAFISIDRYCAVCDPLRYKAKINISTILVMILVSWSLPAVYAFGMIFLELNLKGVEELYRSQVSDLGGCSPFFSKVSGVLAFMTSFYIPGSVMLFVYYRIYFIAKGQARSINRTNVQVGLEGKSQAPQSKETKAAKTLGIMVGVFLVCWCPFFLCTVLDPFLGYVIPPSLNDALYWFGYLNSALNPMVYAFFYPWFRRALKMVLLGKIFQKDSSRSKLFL

Regarding `NC1=N[C@@H](CCC2(c3ccccc3)CC2)CO1`, the Ki was 500 pM.

Broadly, the Ki is a measure of affinity in units of concentration, obtained from inhibition or displacement.
